Data: patent US10143201B2, “Fungicidal compositions” (Syngenta Crop Protection LLC, priority 2007, dated 2018)
Where two headings read alike, the source gives them in different places.

Legend:
Format in all cases: cell-based
Pyrenophora teres = assay: Fungicidal action against Pyrenophora teres (net blotch), microtiter growth inhibition; conditions: for inhibition at 0.0625 ppm / inhibition at 0.125 ppm / inhibition at 0.5 ppm / inhibition at 1 ppm: read-out: % activity; for % activity: alone
Description: Example B6: Fungicidal Action Against Pyrenophora teres (Net Blotch)
(§1) Conidia of the fungus from cryogenic storage are directly mixed into nutrient broth (PDB potato dextrose broth). After placing a (DMSO) solution of the test compounds into a microtiter plate (96-well format) the nutrient broth containing the fungal spores is added. The test plates are incubated at 24° C. and the inhibition of growth is evaluated after 4 days. The expected fungicidal action is calculated according to the Colby method.

Gaeumannomyces graminis = assay: Fungicidal action against Gaeumannomyces graminis (take-all of cereals), microtiter growth inhibition; conditions: Gaeumannomyces graminis
Description: Example B7: Fungicidal Action Against Gaeumannomyces graminis (Take-all of Cereals)
as §1, with “Mycelial fragments” for “Conidia”, “24 C” for “24° C.”, “days.” for “days. The expected fungicidal action is calculated according to the Colby method.”

Septoria tritici = assay: Fungicidal action against Septoria tritici (leaf blotch), microtiter growth inhibition
Description: Example B3: Fungicidal Action Against Septoria tritici (Leaf Blotch)
as §1

[1] = tested on: Pseudocercosporella herpotrichoides (syn. Tapesia yallundae); assay: Fungicidal action against Pseudocercosporella herpotrichoides (eye spot of cereals), microtiter growth inhibition
Description: Example B5: Funicidal Action Against Pseudocercosporella herpotrichoides (Syn. Tapesia yallundae), Eye Spot of Cereals
as §1

[2] = tested on: Cercospora arachidicola (syn. Mycosphaerella arachidis); assay: Fungicidal action against Cercospora arachidicola (brown leaf spot of groundnut), microtiter growth inhibition; conditions: Mycosphaerella arachidis
Description: Example B8: Fungicidal Action Against Cercospora arachidicola (Syn. Mycosphaerella arachidis), Brown Leaf Spot of Groundnut (Peanut)
as §1, with “24 C” for “24° C.”, “7” for “4”, “days.” for “days. The expected fungicidal action is calculated according to the Colby method.”

Alternaria solani = assay: Fungicidal action against Alternaria solani (early blight tomato/potato), microtiter growth inhibition
Description: Example B4: Fungicidal Action Against Alternaria solani (Early Blight Tomato/Potato)
as §1, with “after 3” for “after 4”

Botrytis cinerea = assay: Fungicidal action against Botrytis cinerea (gray mould), microtiter growth inhibition; conditions: for % activity: alone
Description: Example B2: Fungicidal Action Against Botrytis cinerea (Gray Mould)
as §1

[3] = compound alone, 0.0039 ppm, read-out: % activity
[4] = compound alone, 0.0313 ppm, read-out: % activity
[5] = compound alone, 0.0625 ppm, read-out: % activity
[6] = Zymoseptoria tritici, read-out: % activity
[7] = Botrytis cinerea, read-out: % activity
[8] = Oculimacula yallundae, read-out: % activity

CC1COC(Cn2cncn2)(c2ccc(Oc3ccc(Cl)cc3)cc2Cl)O1 (centres unmarked) [Difenoconazole, difenoconazole]
90%: inhibition at 0.0625 ppm (Septoria tritici; Zymoseptoria tritici, 0.0625 ppm, alone, read-out: % activity)
50%: inhibition at 0.125 ppm (Pyrenophora teres; Pyrenophora teres, compound alone, 0.1250 ppm) | inhibition at 0.25 ppm (Pyrenophora teres; Pyrenophora teres, compound alone, 0.2500 ppm) | inhibition at 0.0313 ppm (Septoria tritici; Zymoseptoria tritici, 0.0313 ppm, alone) | inhibition at 0.125 ppm ([1]; Oculimacula yallundae, 0.1250 ppm, alone)
70%: inhibition at 0.5 ppm (Pyrenophora teres; Pyrenophora teres, compound alone, 0.5000 ppm) | inhibition at 1 ppm (Pyrenophora teres; Pyrenophora teres, compound alone, 1.0000 ppm)
20%: inhibition at 0.0625 ppm (Pyrenophora teres; Pyrenophora teres, compound alone, 0.0625 ppm)
0%: inhibition at 0.0039 ppm (Gaeumannomyces graminis; [3]) | inhibition at 0.0156 ppm (Gaeumannomyces graminis; compound alone, 0.0156 ppm) | inhibition at 0.0313 ppm (Gaeumannomyces graminis; [4]) | inhibition at 0.0625 ppm (Gaeumannomyces graminis; [5])

C#CCOc1ccc(CCNC(=O)C(OCC#C)c2ccc(Cl)cc2)cc1OC (centres unmarked) [Mandipropamid, mandipropamid]
0%: inhibition at 0.5 ppm (Pyrenophora teres; Pyrenophora teres) | inhibition at 1 ppm (Pyrenophora teres; Pyrenophora teres) | inhibition at 0.0039 ppm (Gaeumannomyces graminis; read-out: % activity) | inhibition at 0.0078 ppm (Gaeumannomyces graminis; read-out: % activity) | inhibition at 0.0313 ppm (Gaeumannomyces graminis; read-out: % activity) | inhibition at 0.0625 ppm (Gaeumannomyces graminis; read-out: % activity) | inhibition at 0.0039 ppm ([2]; read-out: % activity) | inhibition at 0.0078 ppm ([2]; read-out: % activity) | inhibition at 0.125 ppm (Septoria tritici; [6]) | inhibition at 0.25 ppm (Septoria tritici; [6]) | inhibition at 0.5 ppm (Septoria tritici; [6])

CC(C1CC1)C(O)(Cn1cncn1)c1ccc(Cl)cc1 (centres unmarked) [Cyproconazole, cyproconazole]
20%: inhibition at 0.0625 ppm (Gaeumannomyces graminis; [5]) | inhibition at 0.5 ppm (Alternaria solani; Alternaria solani, 0.5000 ppm, alone, read-out: % activity)
0%: inhibition at 0.0039 ppm (Gaeumannomyces graminis; [3]) | inhibition at 0.0313 ppm (Gaeumannomyces graminis; [4]) | inhibition at 0.125 ppm (Alternaria solani; Alternaria solani, 0.1250 ppm, alone) | inhibition at 0.25 ppm (Alternaria solani; Alternaria solani, 0.2500 ppm, alone, read-out: % activity)
70%: inhibition at 0.25 ppm ([1]; Oculimacula yallundae, 0.2500 ppm, alone, read-out: % activity)

CC(C)(C)C(O)(CCc1ccc(Cl)cc1)Cn1cncn1 (centres unmarked) [Tebuconazole]
50%: inhibition at 0.125 ppm (Gaeumannomyces graminis; compound alone, 0.1250 ppm)

CO/C=C(/C(=O)OC)c1ccccc1COc1cccc(C(F)(F)F)n1 [Picoxystrobin, picoxystrobin]
70%: % activity (Pyrenophora teres; 0.0625 ppm) | % activity (Septoria tritici; 0.0313 ppm, alone) | % activity ([1]; 1.0000 ppm, alone)
20%: % activity (Septoria tritici; 0.0156 ppm, alone) | % activity ([1]; 0.0156 ppm, alone) | % activity (Alternaria solani; 0.0156 ppm, alone) | % activity (Alternaria solani; 0.0313 ppm, alone)
0%: % activity (Botrytis cinerea; 0.0625 ppm) | % activity (Botrytis cinerea; 0.1250 ppm) | % activity (Botrytis cinerea; 0.2500 ppm) | % activity (Botrytis cinerea; 0.5000 ppm) | % activity (Botrytis cinerea; 1.0000 ppm) | % activity (Botrytis cinerea; 2.0000 ppm) | % activity ([1]; 0.0078 ppm, alone) | % activity (Alternaria solani; 0.0078 ppm, alone)
50%: % activity (Pyrenophora teres; 0.0313 ppm) | % activity ([1]; 0.0313 ppm, alone) | % activity ([1]; 0.0625 ppm, alone) | % activity ([1]; 0.1250 ppm, alone) | % activity ([1]; 0.2500 ppm, alone) | % activity ([1]; 0.5000 ppm, alone) | % activity (Alternaria solani; 0.0625 ppm, alone) | % activity (Alternaria solani; 0.1250 ppm, alone) | % activity (Alternaria solani; 0.2500 ppm, alone) | % activity (Alternaria solani; 0.5000 ppm, alone) | % activity (Alternaria solani; 2.0000 ppm, alone)

OC(Cc1ccccc1Cl)(Cn1nc[nH]c1=S)C1(Cl)CC1 (centres unmarked) [Prothioconazole]
70%: inhibition at 0.0625 ppm ([2]; compound alone, 0.0625 ppm)
90%: inhibition at 0.25 ppm (Gaeumannomyces graminis; compound alone, 0.2500 ppm) | inhibition at 0.5 ppm (Gaeumannomyces graminis; compound alone, 0.5000 ppm)
50%: inhibition at 0.0625 ppm (Gaeumannomyces graminis; [5])

N#Cc1c[nH]cc1-c1cccc2c1OC(F)(F)O2 [Fludioxonil, fludioxonil]
70%: inhibition at 0.125 ppm (Pyrenophora teres; Pyrenophora teres) | inhibition at 0.5 ppm (Alternaria solani; Alternaria solani, read-out: % activity, 0.5000 ppm, alone)
0%: inhibition at 0.0313 ppm (Botrytis cinerea; [7]) | inhibition at 0.0625 ppm (Septoria tritici; [6]) | inhibition at 0.125 ppm (Septoria tritici; [6]) | inhibition at 0.0078 ppm [1, 8] | inhibition at 0.0156 ppm [1, 8] | inhibition at 0.0078 ppm (Alternaria solani; Alternaria solani, read-out: % activity, 0.0078 ppm, alone) | inhibition at 0.0156 ppm (Alternaria solani; Alternaria solani, read-out: % activity, 0.0156 ppm, alone) | inhibition at 0.0313 ppm (Alternaria solani; Alternaria solani, read-out: % activity, 0.0313 ppm, alone)
20%: inhibition at 0.0625 ppm (Pyrenophora teres; Pyrenophora teres) | inhibition at 0.0625 ppm (Botrytis cinerea; [7]) | inhibition at 0.25 ppm [1, 8] | inhibition at 0.5 ppm [1, 8] | inhibition at 1 ppm [1, 8] | inhibition at 2 ppm [1, 8] | inhibition at 0.0625 ppm (Alternaria solani; Alternaria solani, read-out: % activity, 0.0625 ppm, alone)
90%: inhibition at 0.125 ppm (Botrytis cinerea; [7])
50%: inhibition at 0.25 ppm (Alternaria solani; Alternaria solani, read-out: % activity, 0.2500 ppm, alone)
